Patent US6856913B1, “Decentralized patient management method” (Swineburn Limited, priority 1998, dated 2005)

Tested on: children diagnosed with ADHD
Assay: SSVEP phase/latency change during the Continuous Performance Task (CPT A-X) before and one hour after stimulant medication
Format: in vivo, human
Conditions: one hour after medication vs before
Description: An example of the invention will now be briefly described with reference to FIGS. 15 and 16. The method was used on patients who are children diagnosed with Attention Deficit […] Disorder (ADHD).
Children diagnosed with ADHD were tested to examine the effects of stimulant medication (methylphenidate or Ritalin) on the amplitude and phase of the steady state visually evoked potential (SSVEP). The children performed two cognitive tasks before the stimulant medication was administered and then repeat the tasks one hour after stimulant medication was administered.
The first task was a low demand vigilance task where the patients were required to press a micro switch on the predictable appearance of the number “5” in the repeated sequence “1, 2, 3, 4, 5”. The second task was known as the A-X version of the Continuous Performance Task (CPT A-X). In this more demanding task, patients were required to press a micro switch on the appearance of the letter “X” if and only if it has been preceded by the letter “A”.
FIGS. 15 and 16 illustrate the spatial distribution of the difference between the mean SSVEP phase, evaluated over the entire CPT A-X task before medication, and the point in time corresponding to the disappearance of the letter “A” in the CPT A-X task after medication.

SMILES: COC(=O)C(c1ccccc1)C1CCCCN1 (centres unmarked) [methylphenidate]
- change in SSVEP phase (latency) at prefrontal sites (FIG. 15, child diagnosed with ADHD and responding to the stimulant medication): large SSVEP latency reduction at prefrontal sites
- change in SSVEP phase (latency) at prefrontal sites (FIG. 16, different child diagnosed with ADHD and not responding to stimulant medication): absence of SSVEP latency reduction at prefrontal sites
